Source: PMC5104480 (PLoS ONE, 2016)

Columns and labels:
[1] = target: T1, HLMs, UGT1A1, UGT1A6 and UGT1A9 (Homo sapiens, UniProt P22309); conditions: HLMs and UGT1A1; substrate chrysoeriol; compared with control
T1 sequence (P22309 26-533): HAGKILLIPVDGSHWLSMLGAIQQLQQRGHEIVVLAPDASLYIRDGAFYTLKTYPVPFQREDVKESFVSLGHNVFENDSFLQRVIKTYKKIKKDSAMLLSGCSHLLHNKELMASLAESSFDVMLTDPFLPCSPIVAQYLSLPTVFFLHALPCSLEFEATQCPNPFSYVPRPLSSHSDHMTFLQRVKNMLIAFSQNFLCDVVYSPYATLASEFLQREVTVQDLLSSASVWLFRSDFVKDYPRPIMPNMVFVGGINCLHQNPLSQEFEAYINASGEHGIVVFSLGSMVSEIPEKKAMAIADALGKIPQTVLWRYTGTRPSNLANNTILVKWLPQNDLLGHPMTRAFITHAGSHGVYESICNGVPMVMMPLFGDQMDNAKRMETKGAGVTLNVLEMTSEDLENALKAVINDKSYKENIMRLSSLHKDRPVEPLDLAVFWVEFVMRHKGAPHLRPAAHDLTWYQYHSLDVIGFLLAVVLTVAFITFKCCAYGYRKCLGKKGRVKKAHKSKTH
Protocol: (§1) The protein concentrations of the HLMs and expressed UGTs were 0.0021–0.0106 mg protein/mL. All of the incubations were run at 37°C for 30 min, and the way of pretreated and determined samples were as discribed above.

[2] = target: T2, HLMs, UGT1A1, UGT1A6 and UGT1A9 (Homo sapiens, UniProt O60656); conditions: HLMs and UGT1A9, compared with control
T2 sequence (O60656 26-530): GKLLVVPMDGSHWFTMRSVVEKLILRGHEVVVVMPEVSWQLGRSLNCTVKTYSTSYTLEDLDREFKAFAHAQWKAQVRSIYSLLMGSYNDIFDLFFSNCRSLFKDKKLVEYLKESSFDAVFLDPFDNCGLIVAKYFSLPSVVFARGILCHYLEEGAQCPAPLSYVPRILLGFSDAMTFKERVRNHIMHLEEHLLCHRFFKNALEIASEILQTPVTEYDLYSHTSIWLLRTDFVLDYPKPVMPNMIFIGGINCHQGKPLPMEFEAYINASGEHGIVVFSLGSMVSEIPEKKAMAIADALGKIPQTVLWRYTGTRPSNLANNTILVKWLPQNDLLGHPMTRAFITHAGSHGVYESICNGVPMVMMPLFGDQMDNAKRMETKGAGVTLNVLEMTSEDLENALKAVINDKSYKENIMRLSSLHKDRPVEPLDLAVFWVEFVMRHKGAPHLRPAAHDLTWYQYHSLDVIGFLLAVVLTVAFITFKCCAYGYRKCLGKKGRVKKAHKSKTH
Protocol: as §1

[3] = system: A549 cells; assay: MTT assay, A549 cells, with and without Ko143; format: cell-based
Protocol: The cells were further incubated at 37°C with 5% CO2 for 48 h. The culture medium was removed and replaced with 100 μL 0.5 mg/mL 3-(4, 5-dimethylthiozol-2-yl)-3, 5-dipheryl tetrazolium bromide (MTT) solution and incubated at 37°C for 4 h. The supernatants were discarded, and 150 μL of dimethyl sulfoxide was added to each well. The plates were shaken for 10 min at room temperature, and then, the stained formazan product was determined at 570 nm with a multimode plate reader.

[4] = system: HepG2 cells; assay: MTT assay, HepG2 cells, with and without Ko143; format: cell-based
Protocol: The cells were further incubated at 37°C with 5% CO2 for 48 h. […] The supernatants were discarded, and 150 μL of dimethyl sulfoxide was added to each well. The plates were shaken for 10 min at room temperature, and then, the stained formazan product was determined at 570 nm with a multimode plate reader.

[5] = system: HeLa cells; assay: Glucuronide formation in HeLa cells (control); conditions: HeLa cells without UGT1A9 (control)
Protocol: HeLa and HeLa—UGT1A9 cells were seeded into six-well plate at a density of 1.0 × 10^5 cells/well, and were grown using Dulbecco’s modified Eagle’smedium (DMEM) supplemented with 10% fetal bovine serum (FBS). After 3 ~ 4 days of seeding, the cells can be used for the glucuronidation experiments.
Brifely speaking, the cells were incubated at 37°C with loading solution (2 mL). […] The collected samples were mixed with 250 μL acetonitrile containing 25 nM tilianin and then analyzed by UHPLC—MS/MS after centrifugation at 13,000 rpm for 30 min. After the excretion experiment, the cells were washed and selected in 300 μL HBSS buffer, and then the cells were ultrasonicated. After centrifugation at 13,000 rpm for 30 min, the 200 μL supernatant was obtained and mixed with 100 μL acetonitrile containing 25 nM tilianin. The mixture was then centrifuged at 13,000 rpm for 30 min and prepared for subsequent UHPLC—MS/MS analysis.

[6] = cited from earlier work
[7] = 10 μM substrate with 5 μM Ko143, 48 h
[8] = 10 μM substrate with 10 μM Ko143, 48 h
[9] = 10 μM substrate with 5 or 10 μM Ko143, 48 h

C=CC1=C(C)/C(=C/c2[nH]c(Cc3[nH]c(/C=C4\NC(=O)C(C)=C4C=C)c(C)c3CCC(=O)O)c(CCC(=O)O)c2C)NC1=O [bilirubin]
effect on formation of Chr-4′-G [1]: significantly decrease

Cc1ccc(C(C)C)cc1O [carvacrol]
effect on formation of Chr-7-G ([2]; substrate chrysoeriol): significantly decrease | effect on formation of Dio-3′-G ([2]; substrate diosmetin): significantly decrease

COc1cc(-c2cc(=O)c3c(O)cc(O)cc3o2)ccc1O [chrysoeriol, 5,7,4′-trihydroxy-3′-methoxyflavone]
decrease of cell viability compared with substrate alone [3, 7]: 12% | decrease of cell viability compared with substrate alone [3, 8]: 18% | change of cytotoxicity when treated with Ko143 [4, 9]: little change | glucuronided metabolites in HeLa cells [5]: did not find

COc1ccc(-c2cc(=O)c3c(O)cc(O)cc3o2)cc1O [diosmetin, 5,7,3′-trihydroxy-4′-methoxyflavone]
change of cytotoxicity when treated with Ko143 [3, 9]: little change | decrease of cell viability compared with substrate alone [4, 7]: 12% | decrease of cell viability compared with substrate alone [4, 8]: 13%

acacetin glucuronide
Km [6]: 14.5 µM

genistein glucuronides
Km [6]: 15.1 µM
